Source: ChEMBL document CHEMBL5104160, “In vitro and in vivo neuroprotective effect of novel mPGES-1 inhibitor in animal model of Parkinson's disease” (Bioorg Med Chem Lett, 2022)
Activity calls are given as the source filed them. No cut-off for these calls is given here.

How the values were obtained:
Mus musculus [1] = assay: Neuroprotective activity against in 6-OHDA-induced neurotoxicity in mouse assessed as increase in tyrosine hydroxylase (TH)-positive neurons in substantia nigra pars compacta of brain at 1 mg/kg/day, ip administered for 7 days measured by immunohistochemistry analysis; type: functional, organism-based; details: time 7.0 day
Mus musculus [2] = assay: Neuroprotective effect in 6-OHDA-induced lesioned mouse model of Parkinson's disease assessed as decrease in time to turn at 1 mg/kg/day, ip administered for 7 days measured by Pole test; type: functional, organism-based; details: time 7.0 day
[3] = Inhibition of PGE2 production in LPS-induced mouse RAW264.7 cells; type: functional, cell-based
PC-12 [4] = assay: Neuroprotective activity against 6-OHDA-induced cytotoxicity in rat PC-12 cells at 10 uM measured after 12 hrs by MTT assay; type: functional, cell-based
A549 = assay: Inhibition of PGE2 production in IL-1beta-induced human A549 cells assessed as decrease in PGE2 production measured after 24 hrs by enzyme immunoassay; type: functional, cell-based; details: A549, 24 h
RAW264.7 [5] = assay: Cytotoxicity against mouse RAW264.7 cells assessed as decrease in cell viability at 100 to 1000 nM; type: toxicity, cell-based; details: raw264.7, 1 µM, dose 100-1000 nM
Prostaglandin E synthase = target: T1, Prostaglandin E synthase (Homo sapiens, UniProt O14684); assay: Inhibition of human mPGES-1 assessed as reduction in PGE2 production
T1 sequence (O14684 whole entry): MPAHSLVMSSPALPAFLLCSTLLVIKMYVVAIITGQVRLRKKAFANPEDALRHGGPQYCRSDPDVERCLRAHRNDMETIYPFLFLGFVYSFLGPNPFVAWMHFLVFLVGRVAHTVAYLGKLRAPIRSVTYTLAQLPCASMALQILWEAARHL

Blood = assay: Inhibition of PGE2 production in LPS-induced human whole blood; type: functional, tissue-based
Mus musculus [6] = assay: Neuroprotective activity against in 6-OHDA-induced neurotoxicity in mouse assessed as increase in tyrosine hydroxylase (TH)-positive fibers in striatum of brain at 1 mg/kg/day, ip administered for 7 days measured by immunohistochemistry analysis; type: functional, organism-based; details: time 7.0 day
RAW264.7 [7] = assay: Cytotoxicity against mouse RAW264.7 cells assessed as decrease in cell viability at 1 uM; type: toxicity, cell-based; details: raw264.7, 1 µM
Mus musculus [8] = assay: Neuroprotective effect in 6-OHDA-induced lesioned mouse model of Parkinson's disease assessed as decrease in falling frequency at 1 mg/kg/day, ip administered for 7 days measured by rotarod test; type: functional, organism-based; details: time 7.0 day
PC-12 [9] = assay: Neuroprotective activity against 6-OHDA-induced cytotoxicity in rat PC-12 cells measured after 3 hrs by MTT assay; type: functional; details: read-out: ED50 (the source's name)
Mus musculus [10] = assay: Neuroprotective effect in 6-OHDA-induced lesioned mouse model of Parkinson's disease assessed as increase in latency time at 1 mg/kg/day, ip administered for 7 days measured by rotarod test; type: functional, organism-based; details: time 7.0 day
Mus musculus [11] = assay: Neuroprotective effect in 6-OHDA-induced lesioned mouse model of Parkinson's disease assessed as decrease in time for locomotion activity at 1 mg/kg/day, ip administered for 7 days measured by Pole test; type: functional, organism-based; details: time 7.0 day
Mus musculus [12] = assay: Neuroprotective effect in 6-OHDA-induced lesioned mouse model of Parkinson's disease assessed as decrease in time for locomotion activity at 80 mg/kg/day, po administered for 7 days measured by Pole test; type: functional, organism-based; details: time 7.0 day
Mus musculus [13] = assay: Neuroprotective effect in 6-OHDA-induced lesioned mouse model of Parkinson's disease assessed as decrease in time to turn at 80 mg/kg/day, po administered for 7 days measured by Pole test; type: functional, organism-based; details: time 7.0 day

IC50 [3] [nM]	Structure (SMILES)	Activity (RAW264.7 [7])	also measured
41.8	O=C(Oc1ccc(OCc2ccccc2)cc1)N(Nc1cccc(Cl)c1)S(=O)(=O)c1ccc(Cl)cc1	Non-Toxic	Activity (Mus musculus [1]): Active; Activity (Mus musculus [2]): Active; Activity (PC-12 [4]): Active; IC50 (A549): 145 nM; Activity (RAW264.7 [5]): Non-Toxic; IC50 (Prostaglandin E synthase): 1.16 nM; IC50 (Blood): 428 nM; Activity (Mus musculus [6]): Active; Activity (Mus musculus [8]): Active; EC50 (PC-12 [9]): 3 nM; Activity (Mus musculus [10]): Active; Activity (Mus musculus [11]): Active
177	Cc1cc(C)c(S(=O)(=O)N(Nc2ccccc2)C(=O)Oc2ccc(Oc3ccccc3)cc2)c(C)c1	Non-Toxic	–
–	N[C@@H](Cc1ccc(O)c(O)c1)C(=O)O	–	Activity (Mus musculus [12]): Active; Activity (Mus musculus [13]): Active
> 1000	Cc1ccccc1NN(C(=O)Oc1ccccc1)S(=O)(=O)c1ccc(Cl)cc1	Non-Toxic	–
759	O=C(Oc1ccc([N+](=O)[O-])cc1)N(Nc1cccc(Cl)c1)S(=O)(=O)c1ccc(Cl)cc1	Non-Toxic	–
–	Cc1cc(C)c(S(=O)(=O)N(Nc2ccccc2)C(=O)Oc2ccc(OCc3ccccc3)cc2)c(C)c1	Non-Toxic	–
246	O=C(Oc1cccc2c1CCC2)N(Nc1ccccc1)S(=O)(=O)c1ccc(C(F)(F)F)cc1	Non-Toxic	–
434	CCc1ccc(S(=O)(=O)N(Nc2ccccc2)C(=O)Oc2ccc(Oc3ccccc3)cc2)cc1	Non-Toxic	–
313	Cc1cc(C)c(S(=O)(=O)N(Nc2ccccc2)C(=O)Oc2cccc3c2CCC3)c(C)c1	Non-Toxic	–
645	O=C(Oc1ccc([N+](=O)[O-])cc1)N(Nc1ccc(Cl)cc1)S(=O)(=O)c1ccc(Cl)cc1	Non-Toxic	–
1000	Cc1ccccc1NN(C(=O)Oc1ccccc1)S(=O)(=O)c1ccccc1	Non-Toxic	–
47.1	O=C(Oc1ccc(OCc2ccccc2)cc1)N(Nc1ccccc1)S(=O)(=O)c1ccc(C(F)(F)F)cc1	Non-Toxic	–
398	Cc1ccc(S(=O)(=O)N(Nc2ccccc2)C(=O)Oc2cccc3c2CCC3)cc1	Non-Toxic	–
–	O=C(Oc1ccccc1)N(Nc1ccccc1)S(=O)(=O)c1ccc(Br)cc1	Non-Toxic	–
59.1	O=C(Oc1ccc(OCc2ccccc2)cc1)N(Nc1ccccc1)S(=O)(=O)c1ccc(Cl)cc1	Non-Toxic	–
429	O=C(Oc1cccc2c1CCC2)N(Nc1ccccc1)S(=O)(=O)c1ccc(Cl)cc1	Non-Toxic	–
806	Cc1cccc(NN(C(=O)Oc2ccc([N+](=O)[O-])cc2)S(=O)(=O)c2ccc(Cl)cc2)c1	Non-Toxic	–
–	CC(C)(C)c1ccc(S(=O)(=O)N(Nc2ccccc2)C(=O)Oc2ccc(OCc3ccccc3)cc2)cc1	Non-Toxic	–
–	O=C(Oc1ccccc1)N(Nc1ccccc1)S(=O)(=O)c1ccc(F)cc1	Non-Toxic	–

Structure (SMILES)	IC50 [3] [nM]	Activity (RAW264.7 [7])	also measured
O=C(Oc1ccc(OCc2ccccc2)cc1)N(Nc1ccccc1)S(=O)(=O)c1ccc(-c2ccccc2)cc1	93	Non-Toxic	–
O=C(Oc1ccc(Oc2ccccc2)cc1)N(Nc1ccccc1)S(=O)(=O)c1ccc(-c2ccccc2)cc1	161	Non-Toxic	–
